In patent US7323166B2, “Lactic acid bacteria cultures that inhibit food-borne pathogens” (Board of Regents University of Nebraska, priority 2002, dated 2008):

Test system: cattle isolates
Test: Test of antibiotic resistance in cattle isolates towards various antibiotics (share of isolates per category)
Assay type: cell-based, lactic acid bacteria (LAB)
Details: share of the 19 cattle isolates
Description: The following are examples of types of drugs that would be included in the three categories: Category I: quinolones, vancomycin, dalfopristin/quinupristin, third generation cephalosporins; Category II: ampicillin, first and second generation cephalosporins, erythromycin, trimethoprim/sulfamethoxazole; and Category III: inophores (monensin) and polymixins (Polymixin B and colistin). […] A commercial antimicrobial susceptibility test kit-Etest (AB Biodisk, North America Inc., Piscatway, N.J.) was used to determine the minimum inhibitory concentrations (MIC) of the antibiotics for the isolates selected. Etest strips containing a predefined exponential gradient of a particular antibiotic were applied to agar plates containing Mueller Hinton Agar (Difco) pre-inoculated with an overnight culture of the given bacteria (inoculum of 0.5 McFarland turbidity in 0.85% NaCl). The agar plates with the strips were immediately incubated at 37° C. for 16-20 hours, when bacterial growth became distinctly visible. After incubation, MIC values (μg/ml) were read where the inhibition ellipse (centered along the strip) intersected the scale at the edge of the strip. The susceptibility categorization of organisms towards a specific antibiotic was provided in the Etest antibiotic supplements for each agent and was used to examine the susceptibility of lactic acid bacteria (LAB) isolates. Based on the categorization, MIC for a particular organism was reported as susceptible (S), intermediate (I), or resistant (R). When growth occurred along the entire strip, i.e. no inhibition ellipse was seen, the MIC was reported as greater than (>H) the highest value on the reading scale.

Row | SMILES | % Intermediate | % Resistant | % Susceptible
1 | CN(C)[C@@H]1C(O)=C(C(N)=O)C(=O)[C@@]2(O)C(O)=C3C(=O)c4c(O)cccc4[C@@](C)(O)[C@H]3C[C@@H]12 [TC, Tetracycline] | 0.0% | 31.0% | 69.0%
2 | C[C@H]1COc2c(N3CCN(C)CC3)c(F)cc3c(=O)c(C(=O)O)cn1c23 [LE, Levofloxacin] | 37.0% | 5.0% | 58.0%
3 | Cc1c(F)c(N2CCNC(C)C2)cc2c1c(=O)c(C(=O)O)cn2C1CC1 (stereo not shown) [GP, Grepafloxacin] | 10.0% | 58.0% | 32.0%
4 | CC1(C)S[C@@H]2[C@H](NC(=O)[C@H](N)c3ccccc3)C(=O)N2[C@H]1C(=O)O [AM, Ampicillin] | 0.0% | 10.0% | 90.0%
5 | CC[C@H]1OC(=O)[C@H](C)[C@@H](O[C@H]2C[C@@](C)(OC)[C@@H](O)[C@H](C)O2)[C@H](C)[C@@H](O[C@@H]2O[C@H](C)C[C@H](N(C)C)[C@H]2O)[C@](C)(O)C[C@@H](C)C(=O)[C@H](C)[C@@H](O)[C@]1(C)O [EM, Erythromycin] | 5.0% | 21.0% | 74.0%

Same assay, conditions: share of the 19 cattle isolates; listed as grepafloxacin

Row | SMILES | % Resistant
6 | Cc1c(F)c(N2CCNC(C)C2)cc2c1c(=O)c(C(=O)O)cn2C1CC1 (stereo not shown) [GP, Grepafloxacin] | 58%
